Test results from patent publication US9695155B2, “Herbicidal substituted pyrimidinyloxy benzene compounds” (E. I. DU PONT DE NEMOURS AND COMPANY, priority 2013, dated 2017).

How the values were obtained:
rice = experiment: Test B flooded paddy test; type: in vivo, Oryza sativa; conditions: Flood, 250 g ai/ha; 0 to 100 scale where 0 is no effect and 100 is complete control
How it was run: (§1)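 Plants at 2-leaf stage; pots flooded to 3 cm above soil and compound applied directly into paddy water, depth held throughout. After 13 to 15 days in greenhouse, visual rating versus controls on 0 (no effect) to 100 (complete control) scale.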

Heteranthera limosa = experiment: Test B flooded paddy test; type: in vivo; conditions: Flood, 250 g ai/ha; 0 to 100 scale where 0 is no effect and 100 is complete control
How it was run: as §1

wheat, winter = experiment: Test C preemergence; type: in vivo, Triticum aestivum; conditions: for Wheat plant response rating: preemergence; for Plant response rating, Wheat: Preemergence, 31 g ai/ha, scale 0 to 100, 0 no effect, 100 complete control
How it was run: (§2)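 Seeds were sown in loam–sand blend and sprayed preemergence, while plants at 1- to 4-leaf stage (2–18 cm) in peat-based medium received postemergence sprays; test chemicals were formulated in a non-phytotoxic solvent with surfactant. After 13–15 days in a greenhouse, injury was rated visually against controls, 0 (no effect) to 100 (complete control).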

lambsquarters [1] = experiment: Test C preemergence; type: in vivo, Chenopodium album; conditions: for Lambsquarters plant response rating: preemergence; for Plant response rating, Lambsquarters: Preemergence, 31 g ai/ha, scale 0 to 100, 0 no effect, 100 complete control
How it was run: as §2

yellow nutsedge = experiment: Test C preemergence; type: in vivo, Cyperus esculentus; conditions: for Nutsedge, Yellow plant response rating: preemergence; for Plant response rating, Nutsedge, Yellow: Preemergence, 31 g ai/ha, scale 0 to 100, 0 no effect, 100 complete control
How it was run: as §2

pigweed [2] = experiment: Test C preemergence; type: in vivo, Amaranthus retroflexus; conditions: for Pigweed plant response rating: preemergence; for Plant response rating, Pigweed: Preemergence, 31 g ai/ha, scale 0 to 100, 0 no effect, 100 complete control
How it was run: as §2

blackgrass = experiment: Test C postemergence; type: in vivo, Alopecurus myosuroides
How it was run: as §2

Italian ryegrass = experiment: Test C postemergence; type: in vivo, Lolium multiflorum; conditions: for Plant response rating, Ryegrass, Italian: scale 0 to 100 (0 no effect, 100 complete control)
How it was run: as §2

lambsquarters [3] = experiment: Test C postemergence; type: in vivo, Chenopodium album; conditions: for Plant response rating, Lambsquarters: scale 0 to 100 (0 no effect, 100 complete control)
How it was run: as §2

pigweed [4] = experiment: Test C postemergence; type: in vivo, Amaranthus retroflexus; conditions: for Plant response rating, Pigweed: scale 0 to 100 (0 no effect, 100 complete control)
How it was run: as §2

soybean = experiment: Test C postemergence; type: in vivo, Glycine max; conditions: for Plant response rating, Soybean: scale 0 to 100 (0 no effect, 100 complete control)
How it was run: as §2

barnyardgrass = experiment: Test C postemergence; type: in vivo, Echinochloa crus-galli
How it was run: as §2

kochia = experiment: Test C postemergence; type: in vivo, Kochia scoparia
How it was run: as §2

[5] = 16 g ai/ha, scale 0 to 100 (0 no effect, 100 complete control)
[6] = 62 g ai/ha, scale 0 (no effect) to 100 (complete control)
[7] = 125 g ai/ha, scale 0 (no effect) to 100 (complete control)
[8] = 16 g ai/ha, postemergence, 0 is no effect, 100 is complete control
[9] = 125 g ai/ha, postemergence, visual rating, scale 0 to 100 (0 no effect, 100 complete control)
[10] = Postemergence, 31 g ai/ha, scale 0 to 100 (0 no effect, 100 complete control), 13 to 15 days
[11] = Postemergence, 62 g ai/ha, scale 0 to 100 (0 no effect, 100 complete control)
[12] = 125 g ai/ha, postemergence, visual rating
[13] = 16 g ai/ha, postemergence, visual rating, scale 0 to 100 (0 no effect, 100 complete control), 13 to 15 days
[14] = Postemergence, 31 g ai/ha, 13 to 15 days

`Clc1cnc(Oc2cccc(Br)c2-n2cc(Br)nn2)nc1` [Compound 129] was tested, and the “Plant response rating, Rice” value (rice) was 0, the “Plant response rating, Ducksalad” value (Heteranthera limosa) was 65 and the “Wheat plant response rating” value (wheat, winter; [5]) was 0. For the same compound, the “Wheat plant response rating” value (wheat, winter; [6]) was 0, the “Wheat plant response rating” value (wheat, winter; [7]) was 15 and the “Plant response rating, Wheat” value (wheat, winter) was 0. The “Lambsquarters plant response rating” value (lambsquarters [1]; [5]) was 50, the “Lambsquarters plant response rating” value (lambsquarters [1]; [6]) was 100 and the “Lambsquarters plant response rating” value (lambsquarters [1]; [7]) was 100. For the same compound, the “Plant response rating, Lambsquarters” value (lambsquarters [1]) was 40, the “Nutsedge, Yellow plant response rating” value (yellow nutsedge; [5]) was 0 and the “Nutsedge, Yellow plant response rating” value (yellow nutsedge; [6]) was 5. The “Nutsedge, Yellow plant response rating” value (yellow nutsedge; [7]) was 25, the “Plant response rating, Nutsedge, Yellow” value (yellow nutsedge) was 0 and the “Pigweed plant response rating” value (pigweed [2]; [5]) was 98. The “Pigweed plant response rating” value (pigweed [2]; [6]) was 100, the “Pigweed plant response rating” value (pigweed [2]; [7]) was 100 and the “Plant response rating, Pigweed” value (pigweed [2]) was 100. For the same compound, the “Plant response rating (0 to 100), Blackgrass” value (blackgrass; [8]) was 5, the “Plant response rating, Blackgrass” value (blackgrass; [9]) was 10 and the “Plant response rating, Blackgrass” value (blackgrass; [10]) was 5. The “Plant response rating, Blackgrass” value (blackgrass; [11]) was 5, the “Plant response rating (0 to 100), Ryegrass, Italian” value (Italian ryegrass; [8]) was 0 and the “Plant response rating, Ryegrass, Italian” value (Italian ryegrass; [12]) was 5. For the same compound, the “Plant response rating, Ryegrass, Italian” value (Italian ryegrass; Postemergence, 62 g ai/ha) was 20, the “Plant response rating (0 to 100), Lambsquarters” value (lambsquarters [3]; [8]) was 35 and the “Plant response rating, Lambsquarters” value (lambsquarters [3]; [12]) was 85. The “Plant response rating, Lambsquarters” value (lambsquarters [3]; Postemergence, 62 g ai/ha) was 80, the “Plant response rating (0 to 100), Pigweed” value (pigweed [4]; [8]) was 70 and the “Plant response rating, Pigweed” value (pigweed [4]; [12]) was 90. For the same compound, the “Plant response rating, Pigweed” value (pigweed [4]; Postemergence, 62 g ai/ha) was 80, the “Plant response rating (0 to 100), Soybean” value (soybean; [8]) was 35 and the “Plant response rating, Soybean” value (soybean; [12]) was 60. The “Plant response rating, Soybean” value (soybean; Postemergence, 62 g ai/ha) was 85, the “Plant response rating (0 to 100), Barnyardgrass” value (barnyardgrass; [8]) was 5 and the “Plant response rating, Barnyardgrass” value (barnyardgrass; [9]) was 5. The “Plant response rating, Barnyardgrass” value (barnyardgrass; [10]) was 5, the “Plant response rating, Barnyardgrass” value (barnyardgrass; [11]) was 5 and the “Plant response rating (0 to 100), Kochia” value (kochia; [8]) was 90. The “Plant response rating, Kochia” value (kochia; [9]) was 100 and the “Plant response rating, Kochia” value (kochia; [11]) was 95.

`N#Cc1cccc(Oc2ncc(Br)cn2)c1-n1cc(I)cn1` [Compound 88] was tested, and the “Plant response rating, Rice” value (rice) was 0, the “Plant response rating, Ducksalad” value (Heteranthera limosa) was 25 and the “Wheat plant response rating” value (wheat, winter; [5]) was 0. For the same compound, the “Wheat plant response rating” value (wheat, winter; [6]) was 0, the “Wheat plant response rating” value (wheat, winter; [7]) was 5 and the “Plant response rating, Wheat” value (wheat, winter) was 0. For the same compound, the “Lambsquarters plant response rating” value (lambsquarters [1]; [5]) was 70, the “Lambsquarters plant response rating” value (lambsquarters [1]; [6]) was 100 and the “Lambsquarters plant response rating” value (lambsquarters [1]; [7]) was 100. For the same compound, the “Plant response rating, Lambsquarters” value (lambsquarters [1]) was 100, the “Nutsedge, Yellow plant response rating” value (yellow nutsedge; [5]) was 0 and the “Nutsedge, Yellow plant response rating” value (yellow nutsedge; [6]) was 5. For the same compound, the “Nutsedge, Yellow plant response rating” value (yellow nutsedge; [7]) was 5, the “Plant response rating, Nutsedge, Yellow” value (yellow nutsedge) was 0 and the “Pigweed plant response rating” value (pigweed [2]; [5]) was 100. The “Pigweed plant response rating” value (pigweed [2]; [6]) was 100, the “Pigweed plant response rating” value (pigweed [2]; [7]) was 100 and the “Plant response rating, Pigweed” value (pigweed [2]) was 100. The “Blackgrass plant response rating” value (blackgrass; [13]) was 5, the “Plant response rating (0 to 100), Blackgrass” value (blackgrass; 125 g ai/ha, postemergence) was 10 and the “Plant response rating, Blackgrass” value (blackgrass; [10]) was 10. The “Plant response rating, Blackgrass” value (blackgrass; [11]) was 10, the “Plant response rating (0 to 100), Ryegrass, Italian” value (Italian ryegrass; 125 g ai/ha, postemergence) was 0 and the “Plant response rating, Ryegrass, Italian” value (Italian ryegrass; [14]) was 5. For the same compound, the “Plant response rating, Ryegrass, Italian” value (Italian ryegrass; Postemergence, 62 g ai/ha) was 10, the “Plant response rating (0 to 100), Lambsquarters” value (lambsquarters [3]; 125 g ai/ha, postemergence) was 75 and the “Plant response rating, Lambsquarters” value (lambsquarters [3]; [14]) was 75. For the same compound, the “Plant response rating, Lambsquarters” value (lambsquarters [3]; Postemergence, 62 g ai/ha) was 60, the “Plant response rating (0 to 100), Pigweed” value (pigweed [4]; 125 g ai/ha, postemergence) was 90 and the “Plant response rating, Pigweed” value (pigweed [4]; [14]) was 85. For the same compound, the “Plant response rating, Pigweed” value (pigweed [4]; Postemergence, 62 g ai/ha) was 85, the “Plant response rating (0 to 100), Soybean” value (soybean; 125 g ai/ha, postemergence) was 65 and the “Plant response rating, Soybean” value (soybean; [14]) was 65. The “Plant response rating, Soybean” value (soybean; Postemergence, 62 g ai/ha) was 95, the “Barnyardgrass plant response rating” value (barnyardgrass; [13]) was 5 and the “Plant response rating (0 to 100), Barnyardgrass” value (barnyardgrass; 125 g ai/ha, postemergence) was 10. The “Plant response rating, Barnyardgrass” value (barnyardgrass; [10]) was 5, the “Plant response rating, Barnyardgrass” value (barnyardgrass; [11]) was 5 and the “Kochia plant response rating” value (kochia; [13]) was 90. The “Plant response rating (0 to 100), Kochia” value (kochia; 125 g ai/ha, postemergence) was 100, the “Plant response rating, Kochia” value (kochia; [10]) was 95 and the “Plant response rating, Kochia” value (kochia; [11]) was 95.
